Data as given in publication PMC8587101, “Design and Synthesis of Novel Betulin Derivatives Containing Thio-/Semicarbazone Moieties as Apoptotic Inducers through Mitochindria-Related Pathways” (Molecules, 2021).
“And” between values parts separate entries of the source, which are not always exact repeats. Identical values can stand only once. Like-named read-outs stand apart in the source and are kept apart here.

Tests used:
[1] = system: human breast carcinoma cells (MCF-7); test: MTT cytotoxicity assay, MCF-7; assay type: cell-based; conditions: read-out: IC50 (μM) MCF-7
[2] = system: human lung carcinoma cells (A549); test: MTT cytotoxicity assay, A549; assay type: cell-based; conditions: read-out: IC50 (μM) A549
[3] = system: human colorectal cells (HCT-116); test: MTT cytotoxicity assay, HCT-116; assay type: cell-based; conditions: read-out: IC50 (μM) HCT-116
[4] = system: normal human gastric epithelial cells (GES-1); test: MTT cytotoxicity assay, GES-1 normal cells; assay type: cell-based; conditions: read-out: IC50 (μM) GES-1
[5] = Homo sapiens, MCF7, 48 h, MTT, 48 h, means ± SD of three experiments
[6] = MTT, 48 h, means ± SD of three experiments
[7] = A549, MTT, 48 h, means ± SD of three experiments
[8] = HCT-116, MTT, 48 h, means ± SD of three experiments
[9] = GES1, MTT, 48 h, normal cells, means ± SD of three experiments, “-” not active

With `C=C(C)[C@@H]1CC[C@]2(/C=N/NC(=O)Nc3ccc(C#N)cc3)CC[C@]3(C)C(CCC4[C@@]5(C)CC[C@H](O)C(C)(C)C5CC[C@]43C)C12` (stereo partly drawn) [Compound 7b, Lup-20(29)-ene-3β-ol-28-N-(4-cyanophenyl)semicarbazide] the IC50 [1, 5] was under 10 µM, the IC50 [1, 6] was 7.88 ± 0.54 µM and the IC50 [2, 7] was 25.1 ± 1.01 µM. It also gave an IC50 [3, 8] of 51.1 ± 2.52 µM, an IC50 [4, 9] of 85.4 ± 3.37 µM and a melting point of 236.5 to 238 °C.

`C=C(C)[C@@H]1CC[C@]2(/C=N/NC(=O)Nc3ccc(Cl)cc3)CC[C@]3(C)C(CCC4[C@@]5(C)CC[C@H](O)C(C)(C)C5CC[C@]43C)C12` (stereo partly drawn) [Compound 7a, Lup-20(29)-ene-3β-ol-28-N-(4-chlorophenyl)semicarbazide] gave an IC50 [1, 5] of 8.57 ± 0.6 µM, an IC50 [2, 7] of 18.1 ± 1.03 µM and an IC50 [3, 8] of 34.8 ± 1.25 µM. For the same molecule, the IC50 [4, 9] was 70.8 ± 2.12 µM and the melting point was 227.2 to 228.3 °C.

`C=C(C)[C@@H]1CC[C@]2(/C=N/NC(=S)Nc3ccc(Cl)c(Cl)c3)CC[C@]3(C)C(CCC4[C@@]5(C)CC[C@H](O)C(C)(C)C5CC[C@]43C)C12` (stereo partly drawn) [Compound 8g, Lup-20(29)-ene-3β-ol-28-N-(3,4-dichlorophenyl)thiosemicarbazide] showed an IC50 [1, 5] of 11.3 ± 1.07 µM, an IC50 [2, 7] of 16.9 ± 1.05 µM and an IC50 [3, 8] of 20.2 ± 0.87 µM. The IC50 [4, 9] was 174 ± 5.14 µM and the melting point was 219.8 to 221.8 °C.

Work on `C=C(C)[C@@H]1CC[C@]2(/C=N/NC(=O)Nc3ccc(OC)cc3)CC[C@]3(C)C(CCC4[C@@]5(C)CC[C@H](O)C(C)(C)C5CC[C@]43C)C12` (stereo partly drawn) [Compound 7c, Lup-20(29)-ene-3β-ol-28-N-(4-methoxyphenyl)semicarbazide] yielded an IC50 [1, 5] of 44.4 ± 2.26 µM, an IC50 [2, 7] of over 80 µM and an IC50 [3, 8] of over 80 µM. The IC50 [4, 9] was over 80 µM and the melting point was 214.2 to 216 °C.

In the case of `C=C(C)[C@@H]1CC[C@]2(/C=N/NC(=S)Nc3ccc(OC)cc3)CC[C@]3(C)C(CCC4[C@@]5(C)CC[C@H](O)C(C)(C)C5CC[C@]43C)C12` (stereo partly drawn) [Compound 8d, Lup-20(29)-ene-3β-ol-28-N-(4-methoxyphenyl)thiosemicarbazide], the IC50 [1, 5] is reported as 38.4 ± 1.58 µM, the IC50 [2, 7] is reported as over 80 µM and the IC50 [3, 8] is reported as over 80 µM. It also gave an IC50 [4, 9] of over 80 µM and a melting point of 203.7 to 205.2 °C.

Molecule `C=C(C)[C@@H]1CC[C@]2(/C=N/NC(=S)Nc3ccc(F)cc3)CC[C@]3(C)C(CCC4[C@@]5(C)CC[C@H](O)C(C)(C)C5CC[C@]43C)C12` (stereo partly drawn) [Compound 8a, Lup-20(29)-ene-3β-ol-28-N-(4-fluorophenyl)thiosemicarbazide] has an IC50 [1, 5] of under 10 µM, an IC50 [1, 6] of 9.8 ± 0.58 µM and an IC50 [2, 7] of 24.1 ± 1.11 µM. For the same molecule, the IC50 [3, 8] was 32.5 ± 1.26 µM, the IC50 [4, 9] was 177 ± 5.02 µM and the melting point was 209.3 to 211 °C.

For `C=C(C)[C@@H]1CC[C@]2(/C=N/NC(=S)Nc3ccc(C(C)(C)C)cc3)CC[C@]3(C)C(CCC4[C@@]5(C)CC[C@H](O)C(C)(C)C5CC[C@]43C)C12` (stereo partly drawn) [Compound 8e, Lup-20(29)-ene-3β-ol-28-N-(4-tert-butylphenyl)thiosemicarbazide], the IC50 [1, 5] was 46.4 ± 3.42 µM, the IC50 [2, 7] was over 80 µM and the IC50 [3, 8] was over 80 µM. The IC50 [4, 9] was over 80 µM and the melting point was 216.8 to 218.2 °C.

`C=C(C)[C@@H]1CC[C@]2(/C=N/NC(=S)Nc3ccc(C)cc3)CC[C@]3(C)C(CCC4[C@@]5(C)CC[C@H](O)C(C)(C)C5CC[C@]43C)C12` (stereo partly drawn) [Compound 8c, Lup-20(29)-ene-3β-ol-28-N-(p-tolyl)thiosemicarbazide] gave an IC50 [1, 5] of 28.6 ± 1.06 µM, an IC50 [2, 7] of over 80 µM and an IC50 [3, 8] of 46.3 ± 1.77 µM. The IC50 [4, 9] was over 80 µM and the melting point was 206.4 to 208.2 °C.

For `C=C(C)[C@@H]1CC[C@]2(/C=N/NC(=O)Nc3ccc(Cl)c(C(F)(F)F)c3)CC[C@]3(C)C(CCC4[C@@]5(C)CC[C@H](O)C(C)(C)C5CC[C@]43C)C12` (stereo partly drawn) [Compound 7g, Lup-20(29)-ene-3β-ol-28-N-((3-trifluoromethyl-4-chloro)phenyl)semicarbazide], the IC50 [1, 5] was under 10 µM, the IC50 [1, 6] was 7.06 ± 0.44 µM and the IC50 [2, 7] was 33.6 ± 1.15 µM. For the same molecule, the IC50 [3, 8] was 13.5 ± 0.74 µM, the IC50 [4, 9] was 145 ± 3.88 µM and the melting point was 211.6 to 213 °C.

With `CO[C@@]12[C@H](COC(N)=O)C3=C(C(=O)C(C)=C(N)C3=O)N1C[C@@H]1N[C@@H]12` [Mitomycin, Mitomycin C, reference compound] the IC50 [1, 5] was 15.9 ± 1.03 µM, the IC50 [2, 7] was 12.8 ± 1.08 µM and the IC50 [3, 8] was 11.4 ± 0.87 µM. For the same molecule, the IC50 [4, 9] was 20.5 ± 1.02 µM.

Work on `C=C(C)[C@@H]1CC[C@]2(/C=N/NC(=S)Nc3ccc(Cl)cc3)CC[C@]3(C)C(CCC4[C@@]5(C)CC[C@H](O)C(C)(C)C5CC[C@]43C)C12` (stereo partly drawn) [Compound 8b, Lup-20(29)-ene-3β-ol-28-N-(4-chlorophenyl)thiosemicarbazide] yielded an IC50 [1, 5] of under 10 µM, an IC50 [1, 6] of 7.79 ± 0.45 µM and an IC50 [2, 7] of 18.7 ± 0.98 µM. For the same molecule, the IC50 [3, 8] was 49.5 ± 1.44 µM, the IC50 [4, 9] was 203 ± 5.74 µM and the melting point was 212.5 to 214 °C.

For `C=C(C)[C@@H]1CC[C@]2(/C=N/NC(=O)Nc3cccc(C(F)(F)F)c3)CC[C@]3(C)C(CCC4[C@@]5(C)CC[C@H](O)C(C)(C)C5CC[C@]43C)C12` (stereo partly drawn) [Compound 7e, Lup-20(29)-ene-3β-ol-28-N-(3-(trifluoromethyl)phenyl)semicarbazide], the IC50 [1, 5] was under 10 µM, the IC50 [1, 6] was 5.86 µM and 5.96 µM and the IC50 [2, 7] was 43.8 ± 1.44 µM. The IC50 [3, 8] was 26.1 ± 1.17 µM, the IC50 [4, 9] was 196 ± 5.82 µM and the melting point was 223.4 to 225.1 °C.

In the case of `C=C(C)[C@@H]1CC[C@]2(/C=N/NC(=O)Nc3cccc(C)c3)CC[C@]3(C)C(CCC4[C@@]5(C)CC[C@H](O)C(C)(C)C5CC[C@]43C)C12` (stereo partly drawn) [Compound 7f, Lup-20(29)-ene-3β-ol-8-N-(m-tolyl)semicarbazide], the IC50 [1, 5] is reported as 26.8 ± 1.34 µM, the IC50 [2, 7] is reported as over 80 µM and the IC50 [3, 8] is reported as over 80 µM. For the same molecule, the IC50 [4, 9] was over 80 µM and the melting point was 224.2 to 226 °C.

`C=C(C)[C@@H]1CC[C@]2(CO)CC[C@]3(C)[C@H](CC[C@@H]4[C@@]5(C)CC[C@H](O)C(C)(C)[C@@H]5CC[C@]43C)[C@@H]12` [Compound 1, lup-20(29)-ene-3β,28-diol, reference compound] gave an IC50 ([1]; Homo sapiens, MCF7, 48 h) of 19.4 ± 0.93 µM, an IC50 ([2]; A549, 48 h) of 27.1 ± 1.2 µM and an IC50 ([3]; HCT-116, 48 h) of 30 ± 1.22 µM. The IC50 ([4]; GES1, 48 h) was 108 ± 4.34 µM.

`C=C(C)[C@@H]1CC[C@]2(/C=N/NC(=O)Nc3ccc(C(F)(F)F)cc3)CC[C@]3(C)C(CCC4[C@@]5(C)CC[C@H](O)C(C)(C)C5CC[C@]43C)C12` (stereo partly drawn) [Compound 7d, Lup-20(29)-ene-3β-ol-28-N-(4-(trifluoromethyl)phenyl)semicarbazide] showed an IC50 [1, 5] of 15.3 ± 1.23 µM, an IC50 [2, 7] of 29.4 ± 1.12 µM and an IC50 [3, 8] of 28.6 ± 1.36 µM. For the same molecule, the IC50 [4, 9] was 168 ± 4.59 µM and the melting point was 221.5 to 222.7 °C.
